Experimental data reported in patent publication US20220168430A1, “THERAPEUTIC METHODS FOR TREATING HEPATITIS B” (priority 2019, published 2022).
Read-outs that look alike come from different tables or passages of the source.

System: HBV rcDNA
Test: Dual agent combination in HepDE19 cells, rcDNA by Quantigene 2.0 bDNA assay (Examples 5-8)
Format: cell-based, HBV; HepDE19 (HepG2 human hepatocarcinoma derived)
Conditions: Hepatitis B virus; for inhibition at 0.005 µM: Compound 1 0.005 μM alone; for inhibition at 0.01 µM: Compound 1 0.010 μM alone; for inhibition at 0.02 µM: Compound 1 0.020 μM alone; for inhibition at 0.039 µM: Compound 1 0.039 μM alone; for inhibition at 0.156 µM: Compound 1 0.156 μM alone
Description: In vitro dual agent combination studies were conducted using the method of Prichard and Shipman 1990 (Prichard M N, Shipman C, Jr. 1990. Antiviral Res 14:181-205). The HepDE19 cell culture system is a HepG2 (human hepatocarcinoma) derived cell line that supports HBV DNA replication and cccDNA formation under control the control of a CMV Tet-off promoter system (Guo et al. 2007. J Virol 81:12472-84). HepDE19 (50,000 cells/well) were plated in 96 well collagen-coated tissue-culture treated microtiter plates in DMEM/F12 medium supplemented with 10% fetal bovine serum+1% penicillin-streptomycin with tetracycline (1 μg/mL) and incubated in a humidified incubator at 37° C. and 5% CO2 overnight. Next day, the cells were switched to fresh medium without tetracycline and incubated for 4 hrs at 37° C. and 5% CO2. The cells were switched to fresh medium and treated with inhibitor A and inhibitor B, at concentration range spanning their respective EC50 values. […] The two inhibitors were tested both singly as well as in combinations in a checkerboard fashion such that each concentration of inhibitor A was combined with each concentration of inhibitor B to determine their combination effects on inhibition of rcDNA production. There were four replicates of each concentration combination in each experiment. The plates were incubated for 7 days in a humidified incubator at 37° C. and 5% CO2. The level of rcDNA present in the wells was measured using a Quantigene 2.0 bDNA assay kit (Affymetrix, Santa Clara, Calif.) with HBV specific custom probe set (genotype D ayw) and according to the manufacturer's instructions and read using a luminescence plate reader and the relative luminescence units (RLU) data generated from each well was calculated as % inhibition of the untreated control wells and analyzed using the MacSynergy II program to determine whether the combinations were synergistic, additive or antagonistic using the interpretive guidelines established by Prichard and Shipman (Prichard M N, Shipman C, Jr. 1990. […] Each experiment was repeated at least three times and the averages and standard deviations of individual determinations was calculated to derive the conclusion. Concurrently, in each experiment, the effect of inhibitor combinations on cell viability was assessed using replicate plates in triplicates that were used to determine the ATP content as a measure of cell viability using the Cell-Titer Glo reagent (Promega, Madison, Wis.) as per the manufacturer's instructions.

[1] = HepDE19, Expt 2, read-out: AVERAGE % INHIBITION
[2] = HepDE19, Expt 3 (with ETV), read-out: ADDITIVE INHIBITION
[3] = HepDE19, Expt 3 (with ETV), read-out: AVERAGE % INHIBITION
[4] = HepDE19, Expt 3 (with TDF), read-out: ADDITIVE INHIBITION
[5] = HepDE19, Expt 3 (with TDF), read-out: AVERAGE % INHIBITION

Cn1cnc(COC(=O)N[C@H]2CCc3c(C(=O)Nc4ccc(F)c(Cl)c4)ccc(F)c32)n1 [Compound 1]
inhibition at 0.005 µM [1]: 7.51% | inhibition at 0.01 µM [1]: 26.3% | inhibition at 0.02 µM [1]: 40.8% | inhibition at 0.039 µM [1]: 39.8% | inhibition at 0.156 µM [1]: 87.4% | inhibition at 1.25 µM (HepDE19, Expt 2, Compound 1 1.250 μM alone, read-out: AVERAGE % INHIBITION): 98.4% | inhibition at 0.005 µM [2]: -5.5% | inhibition at 0.005 µM [3]: -5.5% | inhibition at 0.01 µM [2]: 6.89% | inhibition at 0.01 µM [3]: 6.89% | inhibition at 0.02 µM [2]: 14.2% | inhibition at 0.02 µM [3]: 14.2% | inhibition at 0.039 µM [2]: 43.7% | inhibition at 0.039 µM [3]: 43.7% | inhibition at 0.156 µM [2]: 80.6% | inhibition at 0.156 µM [3]: 80.6% | inhibition at 1.25 µM (HepDE19, Expt 3 (with ETV), Compound 1 1.25 μM alone, read-out: ADDITIVE INHIBITION): 98.1% | inhibition at 1.25 µM (HepDE19, Expt 3 (with ETV), Compound 1 1.25 μM alone, read-out: AVERAGE % INHIBITION): 98.1% | inhibition at 0.005 µM [4]: 18.8% | inhibition at 0.005 µM [5]: 18.8% | inhibition at 0.01 µM [4]: 27.3% | inhibition at 0.01 µM [5]: 27.3% | inhibition at 0.02 µM [4]: 44.5% | inhibition at 0.02 µM [5]: 44.5% | inhibition at 0.039 µM [4]: 66.8% | inhibition at 0.039 µM [5]: 66.8% | inhibition at 0.156 µM [4]: 83.6% | inhibition at 0.156 µM [5]: 83.6% | inhibition at 1.25 µM (HepDE19, Expt 3 (with TDF), Compound 1 1.250 μM alone, read-out: ADDITIVE INHIBITION): 98.8% | inhibition at 1.25 µM (HepDE19, Expt 3 (with TDF), Compound 1 1.250 μM alone, read-out: AVERAGE % INHIBITION): 98.8% | inhibition at 0.007 µM (HepDE19, Expt 3, Cmpd 1 0.007 μM alone, read-out: AVERAGE % INHIBITION): 6.78% | inhibition at 0.067 µM (HepDE19, Expt 3, Cmpd 1 0.067 μM alone): 64.7% | inhibition at 0.2 µM (HepDE19, Expt 3, Cmpd 1 0.200 μM alone): 92.7% | inhibition at 0.6 µM (HepDE19, Expt 3, Cmpd 1 0.600 μM alone): 97.4% | inhibition at 0.007 µM (HepDE19, Expt 3, Compound 1 0.007 μM alone, read-out: AVERAGE % INHIBITION): -51.7% | inhibition at 0.067 µM (HepDE19, Expt 3, Compound 1 0.067 μM alone): 51.8% | inhibition at 0.2 µM (HepDE19, Expt 3, Compound 1 0.200 μM alone): 85.5% | inhibition at 0.6 µM (HepDE19, Expt 3, Compound 1 0.600 μM alone): 94.6% | inhibition at 0.007 µM (HepDE19, Expt 4, Compound 1 0.007 μM alone, read-out: AVERAGE % INHIBITION): 11.7% | inhibition at 0.067 µM (HepDE19, Expt 4, Compound 1 0.067 μM alone): 52.8% | inhibition at 0.2 µM (HepDE19, Expt 4, Compound 1 0.200 μM alone): 90% | inhibition at 0.6 µM (HepDE19, Expt 4, Compound 1 0.600 μM alone): 96.4%
